Data as given in patent US6894046B2, “IL-5 inhibiting 6-azauracil derivatives” (Janssen Pharmaceutica N.V., priority 1998, dated 2005).

test system: IL-5 production in human blood; experiment: In vitro inhibition of IL-5 production in human blood (phytohemagglutinin-stimulated whole blood, ELISA); format: cell-based; settings: test dose 1×10^−6 M, phytohemagglutinin 2 μg/ml, 48 hours
Procedure: EXAMPLE C.1: IN VITRO INHIBITION OF IL-5 PRODUCTION IN HUMAN BLOOD
Peripheral blood from healthy male donors was drawn into heparinized syringes (12.5 U heparin/ml). Blood samples were three-fold diluted in RMPI 1640 medium (Life Technologies, Belgium) supplemented with 2 mM L-glutamine, 100 U/ml penicillin and 100 μg/ml streptomycin, and 300 μl fractions were distributed in 24-well multidisc plates. Blood samples were preincubated (60 minutes at 37° C.) in a humidified 6% CO2-atmosphere with 100 μl of drug solvent (final concentration 0.02% dimethylsulfoxide in RPMI 1640) or with 100 μl of an appropriate dose of test compound before being stimulated by the addition of 100 μl of phytohemagglutinin HA17 (Murex, UK) at a final concentration of 2 μg/ml. After 48 hours, cell-free supernatant fluids were collected by centrifugation and stored at −70° C. until tested for the presence of IL-5.
IL-5 measurements were conducted as described in Van Wauwe et al. (1996, Inflamm Res, 45, 357-363) on page 358 using ELISA.
Table 6 lists the percentage inhibition of IL-5 production (column “% inh”) at a test dose of 1×10^−6 M, or in case the percentage inhibition is marked with an “*” 1×10^−5 M, for the compounds of the present invention.

| Compound | % inh. (percentage inhibition of IL-5 production) [%] |
| --- | --- |
| CC(C)(NC(=O)c1cccnc1)c1c(Cl)cc(-n2ncc(=O)[nH]c2=O)cc1Cl [Compound 101] | 19 |
| CC(C)(c1nc(-c2ccc(-c3cccs3)s2)cs1)c1c(Cl)cc(-n2ncc(=O)[nH]c2=O)cc1Cl [Compound 84] | 14 |
| CC(C)(C)OC(=O)c1sc(C(C)(C)c2c(Cl)cc(-n3ncc(=O)[nH]c3=O)cc2Cl)nc1-c1cccs1 [Compound 119] | 93 |
| CC(C)(c1nc(-c2ccccc2Cl)c(-c2cccc(C#N)c2)s1)c1c(Cl)cc(-n2ncc(=O)[nH]c2=O)cc1Cl [Compound 57] | 85 |
| CC(C)(c1nc(-c2ccc(Br)s2)cs1)c1c(Cl)cc(-n2ncc(=O)[nH]c2=O)cc1Cl [Compound 77] | 84 |
| CC(C)(c1nc(-c2ccccc2F)c(-c2ccccc2)s1)c1c(Cl)cc(-n2ncc(=O)[nH]c2=O)cc1Cl [Compound 34] | 93 |
| Cc1ccsc1-c1csc(C(C)(C)c2c(Cl)cc(-n3ncc(=O)[nH]c3=O)cc2Cl)n1 [Compound 75] | 91 |
| CCOC(=O)Cc1sc(C(C)(C)c2c(Cl)cc(-n3ncc(=O)[nH]c3=O)cc2Cl)nc1-c1ccccc1 [Compound 9] | 88 |
| Cc1c(F)cccc1-c1nc(C(C)(C)c2c(Cl)cc(-n3ncc(=O)[nH]c3=O)cc2Cl)no1 [Compound 144] | 90 |
| 2-[3,5-dichloro-4-(2-pyridinyl-methyl)phenyl]-1,2,4-triazine-3,5(2H,4H)-dione hydrochloride(:1); hydrate(1:1) [Compound 107] | 14 |
| CC(C)OC(=O)c1sc(C(C)(C)c2c(Cl)cc(-n3ncc(=O)[nH]c3=O)cc2Cl)nc1-c1ccccc1 [Compound 122] | 94 |
| CC(C)(c1noc(-c2ccccc2CC(=O)O)n1)c1c(Cl)cc(-n2ncc(=O)[nH]c2=O)cc1Cl [Compound 158] | 3 |
| COC(=O)c1ccc(-c2nc(C(C)(C)c3c(Cl)cc(-n4ncc(=O)[nH]c4=O)cc3Cl)no2)cc1 [Compound 135] | 11 |
| CC(C)(c1nc(-c2cccnc2)cs1)c1c(Cl)cc(-n2ncc(=O)[nH]c2=O)cc1Cl [Compound 82] | 85 |
| CC(C)(c1noc(-c2cccc(Cl)c2)n1)c1c(Cl)cc(-n2ncc(=O)[nH]c2=O)cc1Cl [Compound 93] | 84 |
| CN1CCN(Cc2ccsc2-c2csc(C(C)(C)c3c(Cl)cc(-n4ncc(=O)[nH]c4=O)cc3Cl)n2)CC1.O [Compound 113] | 28 |

| Compound | % inh. (percentage inhibition of IL-5 production) [%] |
| --- | --- |
| CC(C)(c1nc(-c2ccccc2Cl)cs1)c1c(Cl)cc(-n2ncc(=O)[nH]c2=O)cc1Cl [Compound 4] | 94 |
| CCOC(=O)Cc1sc(C(C)(C)c2c(Cl)cc(-n3ncc(=O)[nH]c3=O)cc2Cl)nc1-c1cccs1 [Compound 118] | 78 |
| Cc1ccccc1-c1csc(C(C)(C)c2c(Cl)cc(-n3ncc(=O)[nH]c3=O)cc2Cl)n1 [Compound 40] | 89 |
| CC(C)(C)OC(=O)c1sc(C(C)(C)c2c(Cl)cc(-n3ncc(=O)[nH]c3=O)cc2Cl)nc1-c1ccccc1 [Compound 116] | 89 |
| CC(C)(c1nc(-c2cccs2)c(CC(=O)O)s1)c1c(Cl)cc(-n2ncc(=O)[nH]c2=O)cc1Cl [Compound 121] | −3 |
| CC(C)(c1noc(-c2ccccc2C(F)(F)F)n1)c1c(Cl)cc(-n2ncc(=O)[nH]c2=O)cc1Cl [Compound 153] | 77 |
| CC(C)(c1nc(-c2ccc(C#N)s2)cs1)c1c(Cl)cc(-n2ncc(=O)[nH]c2=O)cc1Cl [Compound 78] | 79 |
| CC(C)(c1nc(-c2ccncc2)cs1)c1c(Cl)cc(-n2ncc(=O)[nH]c2=O)cc1Cl [Compound 7] | 88 |
| CC(C)(c1nc(-c2ccc(Cl)s2)cs1)c1c(Cl)cc(-n2ncc(=O)[nH]c2=O)cc1Cl [Compound 73] | 84 |
| CC(C)(c1noc(-c2ccccc2CO)n1)c1c(Cl)cc(-n2ncc(=O)[nH]c2=O)cc1Cl [Compound 155] | 85 |
| CC(C)(c1nc(-c2ccccc2)c(C(=O)c2ccccc2)s1)c1c(Cl)cc(-n2ncc(=O)[nH]c2=O)cc1Cl [Compound 25] | 79 |
| CC(C)(c1noc(-c2ccccn2)n1)c1c(Cl)cc(-n2ncc(=O)[nH]c2=O)cc1Cl [Compound 98] | 58 |
| CC(C)OC(=O)c1cccc(-c2sc(C(C)(C)c3c(Cl)cc(-n4ncc(=O)[nH]c4=O)cc3Cl)nc2-c2ccccc2Cl)c1 [Compound 65] | 36 |
| Cc1ccc(-c2nc(C(C)(C)c3c(Cl)cc(-n4ncc(=O)[nH]c4=O)cc3Cl)sc2Br)s1 [Compound 111] | 88 |
| CC(C)(c1nc(-c2ccccc2F)cs1)c1c(Cl)cc(-n2ncc(=O)[nH]c2=O)cc1Cl [Compound 11] | 88 |
| COCc1sc(C(C)(C)c2c(Cl)cc(-n3ncc(=O)[nH]c3=O)cc2Cl)nc1-c1ccccc1 [Compound 30] | 93 |

same assay, conditions: test dose 1×10^−6 M, phytohemagglutinin 2 μg/ml, 48 hours, read-out: % inh. (percentage inhibition of IL-5 production)

| Compound | inhibition at 1 µM [%] |
| --- | --- |
| CN1CCN(C(=O)c2cccc(-c3sc(C(C)(C)c4c(Cl)cc(-n5ncc(=O)[nH]c5=O)cc4Cl)nc3-c3ccccc3Cl)c2)CC1 [Compound 61, 1-[3-[2-[1-[2,6-dichloro-4-(4,5-dihydro-3,5-dioxo-1,2,4-triazin-2(3H)-yl)phenyl]-1-methylethyl]-4-(2-chlorophenyl)-5-thiazolyl]benzoyl]-4-methylpiperazine] | 29 |
| CC(C)(c1nc(-c2ccccc2)c(-c2cccc(NC(=O)N3CCNCC3)c2)s1)c1c(Cl)cc(-n2ncc(=O)[nH]c2=O)cc1Cl [Compound 71, N-[3-[2-[1-[2,6-dichloro-4-(4,5-dihydro-3,5-dioxo-1,2,4-triazin-2(3H)-yl)phenyl]-1-methylethyl]-4-phenyl-5-thiazolyl]-phenyl]-1-piperazinecarboxamide monohydrate] | 27 |
| CC(C)(c1nc(-c2ccccc2)c(-c2cccc(O)c2)s1)c1c(Cl)cc(-n2ncc(=O)[nH]c2=O)cc1Cl [Compound 58, 2-[3,5-dichloro-4-[1-[5-(3-hydroxyphenyl)4-phenyl-2-thiazolyl]-1-methyl-ethyl]phenyl]-1,2,4-triazine-3,5(2H,4H)-dione] | 84 |
| CC(C)(c1nc(-c2ccco2)cs1)c1c(Cl)cc(-n2ncc(=O)[nH]c2=O)cc1Cl [Compound 83, 2-[3,5-dichloro-4-[1-[4-(2-furanyl)-2-thiazolyl]-1-methylethyl]phenyl]-1,2,4-triazine-3,5(2H,4H)-dione] | 78 |
| CC(C)(c1noc(-c2ccccc2)n1)c1c(Cl)cc(-n2ncc(=O)[nH]c2=O)cc1Cl [Compound 88, 2-[3,5-dichloro-4-[1-methyl-1-(5-phenyl-1,2,4-oxadiazol-3-yl)ethyl]phenyl]-1,2,4-triazine-3,5(2H,4H)-dione] | 94 |
| CC(C)(c1nc(-c2ccccc2)cs1)c1c(Cl)cc(-n2ncc(=O)[nH]c2=O)cc1Cl [Compound 1, 2-[3,5-dichloro-4-[1-methyl-1-(4-phenyl-2-thiazolyl)ethyl]phenyl]-1,2,4-triazine-3,5(2H,4H)-dione] | 90.5 |
| Cc1ccccc1-c1nc(C(C)(C)c2c(Cl)cc(-n3ncc(=O)[nH]c3=O)cc2Cl)no1 [Compound 87, 2-[3,5-dichloro-4-[1-methyl-1-[5-(2-methylphenyl)-1,2,4-oxadiazol-3-yl]ethyl]phenyl]-1,2,4-triazine-3,5(2H,4H)-dione] | 89 |
| CC(C)(c1nc(-c2ccccc2Cl)c(-c2cccc(CO)c2)s1)c1c(Cl)cc(-n2ncc(=O)[nH]c2=O)cc1Cl [Compound 59, 2-[3,5-dichloro-4-[1-[4-(2-chlorophenyl)-5-[3-(hydroxymethyl)phenyl]-2-thiazolyl]-1-methylethyl]phenyl]-1,2,4-triazine-3,5(2H,4H)-dione] | 82 |
| CC(C)(c1nc(-c2ccsc2)cs1)c1c(Cl)cc(-n2ncc(=O)[nH]c2=O)cc1Cl [Compound 72, 2-[3,5-dichloro-4-[1-methyl-1-[4-(3-thienyl)-2-thiazolyl]ethyl]phenyl]-1,2,4-triazine-3,5(2H,4H)-dione] | 84 |
| CC(C)(c1nc(-c2ccc(N(S(C)(=O)=O)S(C)(=O)=O)s2)cs1)c1c(Cl)cc(-n2ncc(=O)[nH]c2=O)cc1Cl [Compound 81, N-[5-[2-[1-[2,6-dichloro-4-(4,5-dihydro-3,5-dioxo-1,2,4-triazine-2(3H)-yl)phenyl]-1-methylethyl]-4-thiazolyl]-2-thienyl]-N-(methylsulfonyl)methanesulfonamide] | 34 |
| CC(C)(c1noc(-c2ccncc2)n1)c1c(Cl)cc(-n2ncc(=O)[nH]c2=O)cc1Cl [Compound 97, 2-[3,5-dichloro-4-[1-methyl-1-[5-(4-pyridinyl)-1,2,4-oxadiazol-3-yl]ethyl]phenyl]-1,2,4-triazine-3,5(2H,4H)-dione] | 90 |
